Biological target: T1, Recombinant human mPGES-1 (Homo sapiens, UniProt O14684)
T1 construct: made in house; host or cells: CHO cells (crude microsomal fractions)
T1 sequence (O14684 1-152): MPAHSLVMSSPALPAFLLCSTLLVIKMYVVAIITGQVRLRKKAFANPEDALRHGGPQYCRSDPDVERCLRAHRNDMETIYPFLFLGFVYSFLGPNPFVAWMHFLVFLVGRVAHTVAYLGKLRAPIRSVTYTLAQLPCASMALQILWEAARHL
Assay: In-vitro screening of mPGES-1 inhibitors (inhibition of PGE2 formation from PGH2, HTRF detection)
Type: biochemical
Conditions: mPGES-1 enzyme; for inhibition at 1 µM: 1 μM test compound, read-out: Percentage inhibition at 1 μM; for inhibition at 1 µM / inhibition at 10 µM: crude microsomal fractions; for inhibition at 10 µM: 10 μM test compound, read-out: Percentage inhibition at 10 μM; for IC50: class symbols
Method in brief: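 PGH2-to-PGE2 isomerization run for 1 min with 15 μM PGH2 after 10 min compound preincubation with microsomal enzyme (40–60 μg/mL) and 2.5 mM GSH, pH buffer 0.1 M potassium phosphate with EDTA. Stannous chloride quench, HTRF PGE2 readout, IC50 fitted against uninhibited reaction.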

| Structure (SMILES) | inhibition at 1 µM [%] | inhibition at 10 µM [%] | IC50 [nM] |
| --- | --- | --- | --- |
| Cc1ccc(CNC(=O)C(C)(C)C)c(C)c1-c1nn(-c2ccc(C(F)(F)F)cc2)c(=O)[nH]1 [Example-108, N-(3-(1-(4-(Trifluoromethyl)phenyl)-4,5-dihydro-5-oxo-1H-1,2,4-triazol-3-yl)-2,4-dimethylbenzyl)pivalamide] | 89.8 | 99.7 | > 100 |
| O=C(NCc1ccc(Cl)c(-c2nn(-c3ccc(C(F)(F)F)cc3)c(=O)[nH]2)c1)[C@@H]1CCCO1 [Example-109, (S)—N-(4-Chloro-3-(1-(4-(trifluoromethyl)phenyl)-4,5-dihydro-5-oxo-1H-1,2,4-triazol-3-yl)benzyl)-tetrahydro furan-2-carboxamide] | 97.1 | 97.2 | 50 to 100 |
| Cn1ccnc1C(=O)NCc1ccc(Cl)c(-c2nn(-c3ccc(C(F)(F)F)cc3)c(=O)[nH]2)c1 [Example-110, N-(4-Chloro-3-(1-(4-(trifluoromethyl)phenyl)-4,5-dihydro-5-oxo-1H-1,2,4-triazol-3-yl)benzyl)-1-methyl-1H-imidazole-2-carboxamide] | 47.2 | 95.1 |  |
| CC1(C)CCC(n2nc(-c3cc(CNC(=O)C(F)(F)F)ccc3Cl)[nH]c2=O)CC1 [Example-117, N-(4-chloro-3-(4,5-dihydro-1-(4,4-dimethylcyclohexyl)-5-oxo-1H-1,2,4-triazol-3-yl)benzyl)-2,2,2-trifluoroacetamide] | 67.9 | 95 |  |
| CC1(C)CCC(n2nc(-c3cc(CNC(=O)C(C)(C)C)ccc3Cl)[nH]c2=O)CC1 [Example-118, N-(4-Chloro-3-(4,5-dihydro-1-(4,4-dimethylcyclohexyl)-5-oxo-1H-1,2,4-triazol-3-yl)benzyl)pivalamide] | 76.2 | 87.8 | > 100 |
| CC(C)(C)n1nc(-c2cc(CNC(=O)C(F)(F)F)ccc2Cl)[nH]c1=O [Example-120, N-(3-(1-tert-butyl-4,5-dihydro-5-oxo-1H-1,2,4-triazol-3-yl)-4-chlorobenzyl)-2,2,2-trifluoroacetamide] | 11.4 | 46 |  |
| CC(C)(C)C(=O)NCc1ccc(Cl)c(-c2nn(C(C)(C)C)c(=O)[nH]2)c1 [Example-121, N-(3-(1-tert-Butyl-4,5-dihydro-5-oxo-1H-1,2,4-triazol-3-yl)-4-chlorobenzyl)pivalamide] | 16.3 | 72.5 |  |
| CC(C)(C)C(=O)NCc1ccc(Cl)c(-c2nn(-c3ccc(Cl)c(F)c3)c(=O)[nH]2)c1 [Example-123, N-(4-Chloro-3-(1-(4-chloro-3-fluorophenyl)-4,5-dihydro-5-oxo-1H-1,2,4-triazol-3-yl)benzyl)pivalamide] | 93.8 | 100 | < 50 |
| CC1(C)CCC(n2nc(-c3cc(CNC(=O)C(F)(F)F)c(F)cc3Cl)[nH]c2=O)CC1 [Example-124, N-(4-chloro-2-fluoro-5-(4,5-dihydro-1-(4,4-dimethylcyclohexyl)-5-oxo-1H-1,2,4-triazol-3-yl)benzyl)-2,2,2-trifluoroacetamide] | 28 | 89 |  |
| CC1(C)CCC(n2nc(-c3cc(CNC(=O)C(C)(C)C)c(F)cc3Cl)[nH]c2=O)CC1 [Example-125, N-(4-Chloro-2-fluoro-5-(4,5-dihydro-1-(4,4-dimethylcyclohexyl)-5-oxo-1H-1,2,4-triazol-3-yl)benzyl)pivalamide] | 79.9 | 95 |  |
| CC(C)(C)C(=O)NCc1cc(-c2nn(-c3ccc(Cl)cc3)c(=O)[nH]2)c(Cl)cc1F [Example-126, N-(4-Chloro-5-(1-(4-chlorophenyl)-4,5-dihydro-5-oxo-1H-1,2,4-triazol-3-yl)-2-fluorobenzyl)pivalamide] | 100 | 99.3 | < 50 |
| COc1cc(Cl)c(-c2nn(-c3ccc(C(F)(F)F)cc3)c(=O)[nH]2)cc1CNC(=O)C(C)(C)C [Example-127, N-(4-Chloro-5-(1-(4-(trifluoromethyl)phenyl)-4,5-dihydro-5-oxo-1H-1,2,4-triazol-3-yl)-2-methoxybenzyl)pivalamide] | 32.4 | 58.5 |  |
| CC(C)(C)C(=O)NCc1cc(-c2nn(-c3ccc(F)c(C(F)(F)F)c3)c(=O)[nH]2)c(Cl)cc1F [Example-128, N-(4-Chloro-2-fluoro-5-(1-(4-fluoro-3-(trifluoromethyl)phenyl)-4,5-dihydro-5-oxo-1H-1,2,4-triazol-3-yl)benzyl)pivalamide] | 91.8 | 89.3 | < 50 |
| CC(C)(C)C(=O)NCc1cc(-c2nn(-c3ccc(C(F)(F)F)nc3)c(=O)[nH]2)c(Cl)cc1F [Example-129, N-(4-Chloro-2-fluoro-5-(1-(6-(trifluoromethyl)pyridin-3-yl)-4,5-dihydro-5-oxo-1H-1,2,4-triazol-3-yl)benzyl)pivalamide] | 93.5 | 92.1 | < 50 |
| CC(C)(C)C(=O)NCc1cc(-n2nc(-c3ccc(C#CC4CC4)cc3)[nH]c2=O)c(Cl)cc1Cl [Example-130, N-(2,4-Dichloro-5-(3-(4-(2-cyclopropylethynyl)phenyl)-4,5-dihydro-5-oxo-1,2,4-triazol-1-yl)benzyl)pivalamide] | 96.6 | 97.8 | 50 to 100 |
| CC(C)(C)C(=O)NCc1cc(-c2nn(-c3ccc(F)c(Cl)c3)c(=O)[nH]2)c(Cl)cc1F [Example-131, N-(4-Chloro-5-(1-(3-chloro-4-fluorophenyl)-4,5-dihydro-5-oxo-1H-1,2,4-triazol-3-yl)-2-fluorobenzyl)pivalamide] | 100 | 99.2 | < 50 |
| O=C(NCc1cc(-c2nn(-c3ccc(Cl)cc3)c(=O)[nH]2)c(Cl)cc1F)c1ccccc1F [Example-132, N-(4-Chloro-5-(1-(4-chlorophenyl)-4,5-dihydro-5-oxo-1H-1,2,4-triazol-3-yl)-2-fluorobenzyl)-2-fluorobenzamide] | 91.8 | 89.8 | < 50 |
| CC(C)C(=O)NCc1cc(-c2nn(-c3ccc(C(F)(F)F)cc3)c(=O)[nH]2)c(Cl)cc1F [Example-133, N-(4-Chloro-2-fluoro-5-(1-(4-(trifluoromethyl)phenyl)-4,5-dihydro-5-oxo-1H-1,2,4-triazol-3-yl)benzyl)isobutyramide] | 98 | 97.9 | < 50 |

Results, then the molecule that gave them:

| inhibition at 1 µM [%] | inhibition at 10 µM [%] | IC50 [nM] | Structure (SMILES) |
| --- | --- | --- | --- |
| 87.2 | 96.2 | < 50 | CC(C)(C)C#Cc1ccc(-c2nn(-c3c(Cl)ccc(CNC(=O)C(C)(C)C)c3F)c(=O)[nH]2)cc1 [Example-111, N-(4-Chloro-2-fluoro-3-(4,5-dihydro-3-(4-(3,3-dimethylbut-1-ynyl)phenyl)-5-oxo-1,2,4-triazol-1-yl)benzyl)pivalamide] |
| 99.5 | 99.8 | < 50 | CC(C)(C)C(=O)NCc1ccc(Cl)c(-n2nc(-c3ccc(C#CC4CC4)cc3)[nH]c2=O)c1F [Example-112, N-(4-Chloro-3-(3-(4-(2-cyclopropylethynyl)phenyl)-4,5-dihydro-5-oxo-1,2,4-triazol-1-yl)-2-fluorobenzyl)pivalamide] |
| 99.3 | 99.1 | < 50 | O=C(NCc1cc(-c2nn(-c3ccc(C(F)(F)F)cc3)c(=O)[nH]2)c(Cl)cc1F)C(F)(F)F [Example-113, N-(4-chloro-2-fluoro-5-(1-(4-(trifluoromethyl)phenyl)-4,5-dihydro-5-oxo-1H-1,2,4-triazol-3-yl)benzyl)-2,2,2-trifluoroacetamide] |
| 99.1 | 98.4 | < 50 | CC(C)(C)C(=O)NCc1cc(-c2nn(-c3ccc(C(F)(F)F)cc3)c(=O)[nH]2)c(Cl)cc1F [Example-114, N-(4-Chloro-2-fluoro-5-(1-(4-(trifluoromethyl)phenyl)-4,5-dihydro-S-oxo-1H-1,2,4-triazol-3-yl)benzyl)pivalamide] |
| 96.5 | 98.2 | < 50 | CC(C)(CO)C(=O)NCc1ccc(Cl)c(-c2nn(-c3ccc(C(F)(F)F)cc3)c(=O)[nH]2)c1 [Example-115, N-(4-Chloro-3-(1-(4-(trifluoromethyl)phenyl)-4,5-dihydro-5-oxo-1H-1,2,4-triazol-3-yl)benzyl)-3-hydroxy-2,2-dimethylpropanamide] |
| 98 | 95.5 | < 50 | O=C(NCc1ccc(Cl)c(-c2nn(-c3ccc(Cl)c(F)c3)c(=O)[nH]2)c1)C(F)(F)F [Example-116, N-(4-chloro-3-(1-(4-chloro-3-fluorophenyl)-4,5-dihydro-5-oxo-1H-1,2,4-triazol-3-yl)benzyl)-2,2,2-trifluoroacetamide] |
| 88.7 | 94.3 | < 50 | O=C(NCc1cc(-c2nn(-c3ccc(C(F)(F)F)cc3)c(=O)[nH]2)c(Cl)cc1F)[C@H]1CCCO1 [Example-119, (R)—N-(4-chloro-2-fluoro-5-(5-oxo-1-(4-(trifluoromethyl)phenyl)-4,5-dihydro-1H-1,2,4-triazol-3-yl)benzyl)tetrahydrofuran-2-carboxamide] |
| 92.2 | 93.5 | < 50 | COCC(C)(C)C(=O)NCc1ccc(Cl)c(-c2nn(-c3ccc(C(F)(F)F)cc3)c(=O)[nH]2)c1 [Example-122, N-(4-Chloro-3-(1-(4-(trifluoromethyl)phenyl)-4,5-dihydro-5-oxo-1H-1,2,4-triazol-3-yl)benzyl)-3-methoxy-2,2-dimethylpropanamide] |
